Biological target: T1, Nuclear factor erythroid 2-related factor 2 (Homo sapiens, UniProt Q16236)
T1 sequence (Q16236 whole entry): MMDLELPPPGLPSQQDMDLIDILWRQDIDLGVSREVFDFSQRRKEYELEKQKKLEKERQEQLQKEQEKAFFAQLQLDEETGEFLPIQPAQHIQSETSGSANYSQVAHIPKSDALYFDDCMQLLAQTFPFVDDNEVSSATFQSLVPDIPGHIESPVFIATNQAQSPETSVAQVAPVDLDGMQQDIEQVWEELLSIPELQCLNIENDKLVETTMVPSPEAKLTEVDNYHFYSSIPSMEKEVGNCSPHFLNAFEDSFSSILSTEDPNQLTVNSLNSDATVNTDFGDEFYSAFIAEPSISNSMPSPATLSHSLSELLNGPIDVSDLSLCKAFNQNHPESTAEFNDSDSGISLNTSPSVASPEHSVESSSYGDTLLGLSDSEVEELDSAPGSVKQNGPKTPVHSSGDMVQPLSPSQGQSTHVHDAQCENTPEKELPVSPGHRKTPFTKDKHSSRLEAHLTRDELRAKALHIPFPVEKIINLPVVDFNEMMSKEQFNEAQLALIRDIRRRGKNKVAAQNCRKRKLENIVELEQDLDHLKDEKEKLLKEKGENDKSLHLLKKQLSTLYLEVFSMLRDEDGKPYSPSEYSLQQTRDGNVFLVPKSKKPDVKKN
Test: Activation of Nrf2 (unknown origin) expressed in human HepG2 cells after 5 hrs by ARE-driven luciferase reporter gene assay

EC50 [µM]	SMILES
1.32	COc1cc(OC)c(OC)cc1/C=C/C(=O)/C=C/c1cc(OC)c(OC)cc1OC [Go-Y021]
9.9	COc1cc(/C=C/C(=O)/C=C/c2ccc(O)c(OC)c2)ccc1O [(1E,4E)-1,5-Bis-(4-hydroxy-3-methoxy-phenyl)-penta-1,4-dien-3-one]
5.3	COc1cc(/C=C2\CCC/C(=C\c3cc(OC)cc(OC)c3)C2=O)cc(OC)c1

More lines, now with the values behind:

SMILES	EC50 [µM]
COc1cc(/C=C/C(=O)CC(=O)/C=C/c2ccc(O)c(OC)c2)ccc1O [CHEBI:3962]	21
O=C(/C=C/c1ccccc1O)/C=C/c1ccccc1O [US9187397, 20q]	3.3
Cc1ccc(C(=O)/C=C/c2ccccc2)c(C)c1	21.1

— BindingDB's records for doi:10.1016/j.ejmech.2017.11.048 (University of New Mexico, 2018)
